From the supplement of paper PMC10307832

What was measured:
Assay in all cases: relative viability (nuclei count vs DMSO), 5 days (fraction); higher = more cells survive
[1] = compound: CN[C@@H]1C[C@H]2O[C@@](C)([C@@H]1OC)n1c3ccccc3c3c4c(c5c6ccccc6n2c5c31)C(=O)NC4 [Staurosporine] + COc1cc2c(Oc3ccc(NC(=O)C4(C(=O)Nc5ccc(F)cc5)CC4)cc3F)ccnc2cc1OCCCN1CCOCC1 [Foretinib] (partner 0.25 µM)
Outline: (§1)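 After 5 days of treatment, lung cancer cells in 1536-well plates were fixed and stained in a single step (final 0.05% Triton X-100, 1% formaldehyde, 1 ug/ml Hoechst) and their nuclei counted on 4× images. Treatment had been applied by pin tool the day after seeding as one drug alone or as a fixed anchor-drug dose with five library-drug doses (not always all listed) in √10 steps. Relative viability is the nuclei count of treated wells divided by that of vehicle wells, and values are medians of duplicate plates.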

[2] = compound: O=c1[nH]cc(F)c(=O)[nH]1 [5-Fluorouracil] + N=C(N)NC(=N)NCCc1ccccc1 [Phenformin] (partner 250 µM)
Outline: as §1

[3] = compound: CN[C@@H]1C[C@H]2O[C@@](C)([C@@H]1OC)n1c3ccccc3c3c4c(c5c6ccccc6n2c5c31)C(=O)NC4 [Staurosporine] + Nc1ncn([C@H]2C[C@H](O)[C@@H](CO)O2)c(=O)n1 [Decitabine] (partner 2 µM)
Outline: as §1

[4] = compound: O=c1[nH]cc(F)c(=O)[nH]1 [5-Fluorouracil] + C[C@]1(O)C[C@@H](c2nc(-c3ccc4ccc(-c5ccccc5)nc4c3)c3c(N)nccn32)C1 [Linsitinib] (partner 1 µM)
Outline: as §1

Cell Line: UMC-11
- relative viability ([1]; first compound 0.005 µM): 1.02
- relative viability ([1]; first compound 0.01581 µM): 0.574
- relative viability ([1]; first compound 0.05 µM): 0.326
- relative viability ([1]; first compound 0.1581 µM): 0.116
- relative viability ([1]; first compound 0.5 µM): 0.077
- relative viability ([2]; first compound 0.02 µM): 0.368
- relative viability ([2]; first compound 0.2 µM): 0.308
- relative viability ([2]; first compound 0.6325 µM): 0.326
- relative viability ([2]; first compound 2 µM): 0.339
- relative viability ([3]; first compound 0.005 µM): 0.76
- relative viability ([3]; first compound 0.05 µM): 0.192
- relative viability ([3]; first compound 0.1581 µM): 0.153
- relative viability ([3]; first compound 0.5 µM): 0.371
- relative viability ([4]; first compound 0.02 µM): 0.969
- relative viability ([4]; first compound 0.2 µM): 0.674
- relative viability ([4]; first compound 0.6325 µM): 0.512
- relative viability ([4]; first compound 2 µM): 0.363
